In the NIST ThermoML archive (doi:10.1007/s10765-011-0948-4):
Where “and” joins values, the source holds several entries; their conditions need not be identical. Identical values can stand only once. ± gives the expanded uncertainty stated by the source.

Legend:
[1] = for thermal pressure coefficient: barogram technique
[2] = molar heat capacity at constant volume; conditions: High-temperature High-pressure adiabatci calorimeter

Question: With `CCOCC` [diethyl ether] as the molecule, how does the “vapor or sublimation pressure” value ([1]; 416.1 K, Liquid) read?
Answer: The value was 1599 ± 48 kPa.

Question: What about the mass density ([1]; 416.1 K, Liquid, Constant volume piezo-calorimeter) of the same molecule?
Answer: Its mass density is 534.6 ± 0.3 kg/m3.

Question: And the thermal pressure coefficient ([1]; 416.1 K, Liquid)?
Answer: Its thermal pressure coefficient is 272 ± 4.1 kPa/K.

Question: And the “vapor or sublimation pressure” value ([1]; 425.19 K, Liquid)?
Answer: The value was 1906 ± 57 kPa.

Question: And the mass density ([1]; 425.19 K, Liquid, Constant volume piezo-calorimeter)?
Answer: The mass density was 517.3 ± 0.3 kg/m3.

Question: And the thermal pressure coefficient ([1]; 425.19 K, Liquid)?
Answer: The thermal pressure coefficient was 238 ± 3.6 kPa/K.

Question: What about the “vapor or sublimation pressure” value ([1]; 437.14 K, Liquid) of the same molecule?
Answer: The value was 2280 ± 68 kPa.

Question: What about the mass density ([1]; 437.14 K, Liquid, Constant volume piezo-calorimeter) of the same molecule?
Answer: The mass density was 485.2 ± 0.3 kg/m3.

Question: What about the thermal pressure coefficient ([1]; 437.14 K, Liquid) of the same molecule?
Answer: The thermal pressure coefficient was 198 ± 3 kPa/K.

Question: And the “vapor or sublimation pressure” value ([1]; 450.6 K, Liquid)?
Answer: Its value is 2931 ± 88 kPa.

Question: And the mass density ([1]; 450.6 K, Liquid, Constant volume piezo-calorimeter)?
Answer: Its mass density is 441.5 ± 0.2 kg/m3.

Question: What about the thermal pressure coefficient ([1]; 450.6 K, Liquid) of the same molecule?
Answer: Its thermal pressure coefficient is 148 ± 2.2 kPa/K.

Question: And the “vapor or sublimation pressure” value ([1]; 450.77 K, Liquid)?
Answer: Its value is 2933 ± 88 kPa.

Question: What about the mass density ([1]; 450.77 K, Liquid, Constant volume piezo-calorimeter) of the same molecule?
Answer: The mass density was 440.8 ± 0.2 kg/m3.

Question: And the thermal pressure coefficient ([1]; 450.77 K, Liquid)?
Answer: Its thermal pressure coefficient is 148 ± 2.2 kPa/K.

Question: And the “vapor or sublimation pressure” value ([1]; 459.61 K, Liquid)?
Answer: The value was 3315 ± 99 kPa.

Question: And the mass density ([1]; 459.61 K, Liquid, Constant volume piezo-calorimeter)?
Answer: The mass density was 394.8 ± 0.2 kg/m3.

Question: And the thermal pressure coefficient ([1]; 459.61 K, Liquid)?
Answer: Its thermal pressure coefficient is 106 ± 1.6 kPa/K.

Question: What about the “vapor or sublimation pressure” value ([1]; 464.79 K, Liquid) of the same molecule?
Answer: The value was 3580 ± 110 kPa.

Question: And the mass density ([1]; 464.79 K, Liquid, Constant volume piezo-calorimeter)?
Answer: Its mass density is 348.2 ± 0.3 kg/m3.

Question: And the thermal pressure coefficient ([1]; 464.79 K, Liquid)?
Answer: The thermal pressure coefficient was 81.8 ± 1.2 kPa/K.

Question: And the thermal pressure coefficient ([1]; 466.12 K, Gas)?
Answer: The thermal pressure coefficient was 52.3 ± 0.8 kPa/K.

Question: What about the mass density ([1]; 466.12 K, Gas, constant volume piezo-calorimeter) of the same molecule?
Answer: The mass density was 212.6 ± 0.6 kg/m3.

Question: What about the “vapor or sublimation pressure” value ([1]; 466.47 K, Liquid) of the same molecule?
Answer: Its value is 3612 ± 110 kPa.

Question: What about the mass density ([1]; 466.47 K, Liquid, Constant volume piezo-calorimeter) of the same molecule?
Answer: The mass density was 310.8 ± 0.8 kg/m3.

Question: What about the thermal pressure coefficient ([1]; 466.47 K, Liquid) of the same molecule?
Answer: Its thermal pressure coefficient is 68 ± 1 kPa/K.

Question: What about the thermal pressure coefficient ([1]; 466.66 K, Gas) of the same molecule?
Answer: Its thermal pressure coefficient is 54.3 ± 0.8 kPa/K.

Question: What about the mass density ([1]; 466.66 K, Gas, constant volume piezo-calorimeter) of the same molecule?
Answer: Its mass density is 233.7 ± 0.8 kg/m3.

Question: And the “vapor or sublimation pressure” value ([1]; 466.75 K, Liquid)?
Answer: The value was 3601 ± 110 kPa.

Question: What about the mass density ([1]; 466.75 K, Liquid, Constant volume piezo-calorimeter) of the same molecule?
Answer: The mass density was 296.7 ± 0.8 kg/m3.

Question: What about the thermal pressure coefficient ([1]; 466.75 K, Liquid) of the same molecule?
Answer: Its thermal pressure coefficient is 64.5 ± 1 kPa/K.

Question: What about the “vapor or sublimation pressure” value ([1]; 466.8 K, Liquid) of the same molecule?
Answer: The value was 3583 ± 110 kPa.

Question: What about the mass density ([1]; 466.8 K, Liquid, Constant volume piezo-calorimeter) of the same molecule?
Answer: Its mass density is 288.3 ± 1.1 kg/m3.

Question: And the thermal pressure coefficient ([1]; 466.8 K, Liquid)?
Answer: Its thermal pressure coefficient is 61 ± 1 kPa/K.

Question: What about the “vapor or sublimation pressure” value ([1]; 466.81 K, Liquid) of the same molecule?
Answer: The value was 3608 ± 110 kPa and 3576 ± 110 kPa.

Question: And the mass density ([1]; 466.81 K, Liquid, Constant volume piezo-calorimeter)?
Answer: The mass density was 278.7 ± 1.5 kg/m3 and 275.7 ± 1.6 kg/m3.

Question: And the thermal pressure coefficient ([1]; 466.81 K, Liquid)?
Answer: Its thermal pressure coefficient is 59.7 kPa/K and 59.2 kPa/K.

Question: And the thermal pressure coefficient ([1]; 466.82 K, Gas)?
Answer: Its thermal pressure coefficient is 55.9 ± 0.9 kPa/K.

Question: What about the mass density ([1]; 466.82 K, Gas, constant volume piezo-calorimeter) of the same molecule?
Answer: Its mass density is 255 ± 1.9 kg/m3.

Question: And the thermal pressure coefficient ([1]; 466.83 K, Gas)?
Answer: Its thermal pressure coefficient is 56.1 ± 0.9 kPa/K.

Question: What about the mass density ([1]; 466.83 K, Gas, constant volume piezo-calorimeter) of the same molecule?
Answer: The mass density was 260.7 ± 2.3 kg/m3.

Question: What about the thermal pressure coefficient ([1]; 466.85 K, Gas) of the same molecule?
Answer: Its thermal pressure coefficient is 55.9 ± 0.9 kPa/K.

Question: What about the mass density ([1]; 466.85 K, Gas, constant volume piezo-calorimeter) of the same molecule?
Answer: The mass density was 261.2 ± 2.2 kg/m3.

Question: What about the Critical density ([1]; Liquid, quasi-satatic thermogram technique) of the same molecule?
Answer: Its Critical density is 265.1 ± 2 kg/m3.

Question: What about the Critical temperature ([1]; Liquid, quasi-static thermogram technique) of the same molecule?
Answer: The Critical temperature was 466.85 ± 0.2 K.

Question: And the “molar heat capacity at constant volume” value ([2]; 416.1 K, Liquid)?
Answer: Its value is 156.77 ± 4.7 J/K/mol.

Question: What about the “molar heat capacity at constant volume” value ([2]; 425.19 K, Liquid) of the same molecule?
Answer: The value was 159.36 ± 4.8 J/K/mol.

Question: And the “molar heat capacity at constant volume” value ([2]; 437.14 K, Liquid)?
Answer: The value was 163.81 ± 4.9 J/K/mol.

Question: And the “molar heat capacity at constant volume” value ([2]; 450.6 K, Liquid)?
Answer: The value was 170.26 ± 5.1 J/K/mol.

Question: What about the “molar heat capacity at constant volume” value ([2]; 450.77 K, Liquid) of the same molecule?
Answer: Its value is 171.96 ± 5.2 J/K/mol.

Question: And the “molar heat capacity at constant volume” value ([2]; 459.61 K, Liquid)?
Answer: Its value is 178.63 ± 5.3 J/K/mol.

Question: What about the “molar heat capacity at constant volume” value ([2]; 464.79 K, Liquid) of the same molecule?
Answer: The value was 190.49 ± 5.7 J/K/mol.

Question: And the “molar heat capacity at constant volume” value ([2]; 466.12 K, Gas)?
Answer: Its value is 190.12 ± 5.7 J/K/mol.

Question: What about the “molar heat capacity at constant volume” value ([2]; 466.47 K, Liquid) of the same molecule?
Answer: The value was 203.83 ± 6.2 J/K/mol.

Question: And the “molar heat capacity at constant volume” value ([2]; 466.66 K, Gas)?
Answer: The value was 208.5 ± 6.3 J/K/mol.

Question: What about the “molar heat capacity at constant volume” value ([2]; 466.75 K, Liquid) of the same molecule?
Answer: Its value is 210.65 ± 6.3 J/K/mol.

Question: And the “molar heat capacity at constant volume” value ([2]; 466.8 K, Liquid)?
Answer: Its value is 218.66 ± 6.6 J/K/mol.

Question: And the “molar heat capacity at constant volume” value ([2]; 466.81 K, Liquid)?
Answer: Its value is 233.48 ± 7.1 J/K/mol and 245.64 ± 7.6 J/K/mol.

Question: What about the “molar heat capacity at constant volume” value ([2]; 466.82 K, Gas) of the same molecule?
Answer: Its value is 234.97 ± 7.4 J/K/mol.

Question: What about the “molar heat capacity at constant volume” value ([2]; 466.83 K, Gas) of the same molecule?
Answer: The value was 248.6 ± 8.2 J/K/mol.

Question: What about the “molar heat capacity at constant volume” value ([2]; 466.85 K, Gas) of the same molecule?
Answer: The value was 264.24 ± 9.1 J/K/mol.
